Data on five compounds can be found in publication PMC4301955 (ChemMedChem, 2012).

For one assay, the target named is T1, full-length human ERα (Homo sapiens, UniProt P03372).
T1 sequence (P03372 1-595): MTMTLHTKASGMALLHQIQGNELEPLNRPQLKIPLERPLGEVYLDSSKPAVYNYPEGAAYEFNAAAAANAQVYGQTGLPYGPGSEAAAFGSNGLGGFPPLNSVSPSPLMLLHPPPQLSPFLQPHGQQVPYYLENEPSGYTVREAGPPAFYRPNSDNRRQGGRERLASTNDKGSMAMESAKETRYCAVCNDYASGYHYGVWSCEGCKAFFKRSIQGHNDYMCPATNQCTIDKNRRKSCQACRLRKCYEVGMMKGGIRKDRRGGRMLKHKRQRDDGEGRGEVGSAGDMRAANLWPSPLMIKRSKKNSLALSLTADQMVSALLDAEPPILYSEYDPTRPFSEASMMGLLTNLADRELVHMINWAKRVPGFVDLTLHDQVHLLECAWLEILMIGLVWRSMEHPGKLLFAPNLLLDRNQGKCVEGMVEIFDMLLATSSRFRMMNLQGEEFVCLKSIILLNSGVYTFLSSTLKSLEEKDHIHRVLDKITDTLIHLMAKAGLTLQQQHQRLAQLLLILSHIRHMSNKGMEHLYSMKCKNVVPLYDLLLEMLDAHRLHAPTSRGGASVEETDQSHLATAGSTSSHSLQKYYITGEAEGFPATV
Format: cell-based. To be noted: for Agonist mode ERα (% E2): HepG2 cells, average efficacy (mean ± s.e.m.) as percentage of 10^−5 M 17β-estradiol.

The subject of a further assay is ERα+ MCF-7 cells. To be noted: for Agonist mode MCF-7 (% E2): ERα+ MCF-7 cells with ERE reporter, average efficacy (mean ± s.e.m.) as percentage of 10^−5 M 17β-estradiol.
Assay [1] addresses T2, purified full-length human ERα (Homo sapiens, UniProt P03372).
T2 sequence (P03372 1-595): T1 sequence (P03372 1-595)
To be noted: for Relative binding affinity (RBA) ERα: IC50 estradiol/IC50 compound ×100, estradiol = 100%, ± range or SD, n = 2–3, 10 nM [3H]estradiol, 18–24 h at 0 °C.

Assay [2] addresses purified full-length human ERβ (Homo sapiens, UniProt Q92731). To be noted: IC50 estradiol/IC50 compound ×100, estradiol = 100%; ± range or SD, n = 2–3; 10 nM [3H]estradiol, 18–24 h at 0 °C.
Assay [3] deals with T3, full-length human ERβ (Homo sapiens, UniProt Q92731). Format: cell-based. To be noted: HepG2 cells; average efficacy (mean ± s.e.m.) as percentage of 10^−5 M 17β-estradiol.
T3 sequence (Q92731 whole entry): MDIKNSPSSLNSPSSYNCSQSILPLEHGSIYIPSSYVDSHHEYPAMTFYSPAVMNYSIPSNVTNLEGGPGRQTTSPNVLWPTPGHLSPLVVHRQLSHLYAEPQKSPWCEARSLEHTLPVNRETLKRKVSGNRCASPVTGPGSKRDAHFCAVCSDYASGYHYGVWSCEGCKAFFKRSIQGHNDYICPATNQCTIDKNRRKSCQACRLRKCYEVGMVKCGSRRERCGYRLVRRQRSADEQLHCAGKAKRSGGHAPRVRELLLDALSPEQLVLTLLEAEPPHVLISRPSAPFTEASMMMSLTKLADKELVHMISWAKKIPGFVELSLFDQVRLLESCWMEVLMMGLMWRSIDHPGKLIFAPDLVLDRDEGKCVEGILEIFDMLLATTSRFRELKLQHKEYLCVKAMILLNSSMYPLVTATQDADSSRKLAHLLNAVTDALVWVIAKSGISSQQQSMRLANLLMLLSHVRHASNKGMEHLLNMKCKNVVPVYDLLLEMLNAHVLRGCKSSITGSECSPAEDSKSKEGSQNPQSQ
The target of assay [4] is T3, full-length human ERβ. Format: cell-based.

Several values for one entry are separate records, joined by “and”; a condition that tells them apart may be missing. Equal values may be shown once.

Sequence of purified full-length human ERβ (Q92731 whole entry): as above

Regarding `C[C@]12CC[C@@H]3c4ccc(O)cc4C[C@@H](CCCCCCCCC[S+]([O-])CCCC(F)(F)C(F)(F)F)[C@H]3[C@@H]1CC[C@@H]2O` (some centres unmarked) [Faslodex, reference compound], at full-length human ERα, the “Agonist mode ERα (% E2)” value turned out to be 1 ± 1 % E2. Besides, the “Agonist mode MCF-7 (% E2)” value in the assay on ERα+ MCF-7 cells is −4 ± 4 % E2.
Consider `O=S(=O)(Oc1ccccc1)[C@H]1C[C@H]2O[C@@H]1C(c1ccc(O)cc1)=C2c1ccc(O)cc1` [Compound 1], for which the “Activity profile in MCF-7 cells (in words)” value with ERα+ MCF-7 cells (3xERE-luciferase, ERα-positive MCF-7 cells) was “limited agonist activity”. For the same compound, the “Agonist mode MCF-7 (% E2)” value in the assay with ERα+ MCF-7 cells is given as 21 ± 4 % E2.
For `O=S(=O)(Oc1cccc2ccccc12)C1CC2OC1C(c1ccc(O)cc1)=C2c1ccc(O)cc1` (centres unmarked) [Compound 2m], in assay [1], the “Relative binding affinity (RBA) ERα” value came to 5.03 ±1.5%. Moreover, the α/β ratio in assay [1] (ratio of the RBA for ERα to the RBA for ERβ) stood at 10.52. Moreover, in assay [2], the “Relative binding affinity (RBA) ERβ” value is given as 0.478 ±0.12%. In addition, on full-length human ERα, the “Agonist mode ERα (% E2)” value is 29 ± 1 % E2. Moreover, the “Agonist mode ERβ (% E2)” value on full-length human ERβ [3] was 1 ± 2 % E2. Further, the “Agonist mode MCF-7 (% E2)” value in the assay on ERα+ MCF-7 cells is given as −4 ± 1 % E2.
On to `CC/C(=C(\c1ccc(O)cc1)c1ccc(OCCN(C)C)cc1)c1ccccc1` [Compound 4-OHT, 4-hydroxytamoxifen, reference compound], for which the “Antagonist mode ERβ (% E2)” value at full-length human ERβ [4] is given as −20 ± 2 % E2. Further, the “Agonist mode ERβ (% E2)” value at full-length human ERβ [3] is −1 ± 1 % E2. Besides, the “Agonist mode MCF-7 (% E2)” value with ERα+ MCF-7 cells was −11 ± 1 % E2.
As for `O=S(=O)(Oc1ccccc1Cl)C1CC2OC1C(c1ccc(O)cc1)=C2c1ccc(O)cc1` (centres unmarked) [Compound 2b, 5,6-Bis-(4-hydroxyphenyl)-7-oxabicyclo[2.2.1]hept-5-ene-2-sulfonic Acid 2-Chlorophenyl Ester], the IC50 (usually the concentration needed to halve the response being measured) against full-length human ERβ [4] is more than 10 µM. In assay [1], the “Relative binding affinity (RBA) ERα” value is 19.0% and 19.00 ±4.6%. Besides, the “Relative binding affinity (RBA) ERβ” value in assay [2] was 1.76% and 1.76 ±0.13%. For the same compound, on full-length human ERα, the EC50 (as a rule, the concentration that produces a half-maximal response) was more than 10 µM and the “Agonist mode ERα (% E2)” value is on record as 29 ± 5 % E2. Further, the “Agonist mode ERβ (% E2)” value on full-length human ERβ [3] was 1 ± 1 % E2. The “Agonist mode MCF-7 (% E2)” value in the assay with ERα+ MCF-7 cells was −7 ± 2 % E2.
